Patent US9314539B2, “Nanosphere-histone acetyltransferase (HAT) activator composition, process and methods thereof” (JAWAHARLAL NEHRU CENTRE FOR ADVANCED SCIENTIFIC RESEARCH, priority 2012, dated 2016)
Where two headings read alike, the source gives them in different places.

How the values were obtained:
[1] = molecular target: T1, p300 (Homo sapiens, UniProt Q09472); experiment: Gel fluorography HAT assay with p300; format: biochemical
Experimental: FIG. 2 depicts (A) filter binding assay to show activation of p300 by TTK21. […] TTK21 dissolved in DMSO is added to the reaction mixture at desired concentrations. Lane 1—Histone only, Lane 2—p300 enzyme added, Lane 3—DMSO added, Lane 4—50 μM TTK21, Lane 5—100 μM TTK21, Lane 6—200 μM TTK21 and Lane 7—275 μM TTK21.
(§1) Highly purified HeLa core histones are incubated in HAT assay buffer at about 30° C. for a time-period of about 10 minutes with or without baculo virus expressed recombinant p300 or CBP in the presence or absence of small molecules (i.e. HAT activators). The incubation is followed by the addition of about 1 μl of 3.6 Ci/mmol ^3H-acetyl CoA (NEN-PerkinElmer) and further incubation for about 10 minutes in a final volume of 30 μl at 30° C. The mixture is blotted onto P-81 (Whatman) filter paper and radioactive counts are recorded on a Wallac 1409 liquid scintillator counter. For gel fluorographic assays, histones are isolated by trichloroacetic acid (TCA) precipitation using 25% TCA. The pellet obtained is washed twice with acetone and dissolved in 2×SDS loading dye, heated for about 5 mins and is followed by separation using 15% SDS-PAGE. Comassie staining is performed to ascertain the presence of equal loading in each reaction and is later dehydrated in DMSO for about 1 hour. […]

[2] = system: SHSY cells; experiment: Cell permeability in neural cell lines; format: cell-based
Experimental: The cell permeability tests of COMPOUND 1 alone is also carried out in various neural cell lines such as SHSY cells and the results are found to be similar to HeLa cells.

[3] = molecular target: T1, p300; experiment: HAT filter binding assay with p300; format: biochemical; conditions: for HAT activation (radioactivity counts): 200 μM, HeLa core histones as substrate
From the text: To understand the mechanistic aspects HAT activation various small molecules are derivatized from CTPB. The initial tail less derivative of CTPB is nomenclatured as N-(4Chloro-3-trifluoromethy 1-pheny 1)-2-ethoxybenzamide [CTB]. CTB is further derivatized to TTK series of compounds (COMPOUNDS 1-9) (FIG. 29 A). These compounds are subjected to histone acetyltransferase assays (filter binding assay) to check for their ability to activate p300/CBP HAT. Core histones purified from HeLa nuclear pellet is used as the substrate and p300 purified from baculovirus infected Sf21 cells is used to determine the HAT modulation activity of these compounds. All compounds are used at a concentration of 200 μM in the HAT assays.
Highly purified HeLa core histones are incubated in HAT assay buffer at about 30° C. for a time-period of about 10 minutes with or without baculo virus expressed recombinant p300 or CBP in the presence or absence of small molecules (i.e. HAT activators). The incubation is followed by the addition of about 1 μl of 3.6 Ci/mmol ^3H-acetyl CoA (NEN-PerkinElmer) and further incubation for about 10 minutes in a final volume of 30 μl at 30° C. The mixture is blotted onto P-81 (Whatman) filter paper and radioactive counts are recorded on a Wallac 1409 liquid scintillator counter. For gel fluorographic assays, histones are isolated by trichloroacetic acid (TCA) precipitation using 25% TCA. The pellet obtained is washed twice with acetone and dissolved in 2×SDS loading dye, heated for about 5 mins and is followed by separation using 15% SDS-PAGE. Comassie staining is performed to ascertain the presence of equal loading in each reaction and is later dehydrated in DMSO for about 1 hour. Dehydrated gel is later incubated in scintillation fluid (PPO solution in DMSO) for about 45 minutes and rehydrated again in distilled water for about 4 hours. The gel is then dried using a gel drier and later exposed in an X-ray cassette using a film for about 5 days in −80° cooler. The film is then developed to obtain the intensity profiles for each of the reactions.

[4] = system: neurons expressing double cortin; experiment: Neurogenesis in dentate gyrus of hippocampus, doublecortin staining; format: in vivo, mice; conditions: intraperitoneal; 3 days
Experimental: FIG. 18 depicts CSP-TTK21 induced neurogenesis in the inner wall of dentate gyms of mice hippocampus. […] of either CSP alone or TTK21 alone or CSP-TTK21 is injected intraperitonially into mice and after 3 days the mice are anesthetized and fixed with 4% paraformaldehyde. Brains are dissected out and post-fixed, cryoprotected and frozen. 20 μm thick sections are obtained and the results are analyzed by immunohistochemistry. Further, immunofluorescence assays are performed using antibody against double cortin. Scale bar represents 50 μm.
A-D, Immunohistochemistry analysis of the dentate gyms of mice, 3 days after intraperitonial injection of either CSP alone or CSP-TTK21 (20 mg/kg of body weight) using an antibody against doublecortin (DCX) followed by DAB staining. A typical photograph is shown (A). Scale bars: 100 μm. The timeline for injection and euthanasia is shown. h, hour; d, day. […] (C) The average of the longest dendrites associated to all DCX positive-new neuron within one hippocampus is calculated and is represented as histogram for each condition (CSP: 141.1 μm vs. CSP-TTK21: 176.9 μm, *p=0.0177, 4-6 sections/animal). (D), (A) typical cropped image from A is shown, on which the number of dendrites crossing virtual lines drawned at 60, 90 and 120 μm from the SGZ was counted (n=5 images/animal). […]

[5] = system: HeLa cells; experiment: Cell permeability: western blot of acetylated H3 in treated HeLa cells; format: cell-based
Experimental: (A) western blot analysis of TTK21 untreated and treated HeLa cells for 24 hours. […] Primary probing of the blot is done with AcH3 and re-probing is done by H3 antibody.

[6] = system: CBP; experiment: HAT filter binding and gel fluorography assays with full length FLAG-CBP; format: biochemical
Experimental: TTK21 dissolved in DMSO is added to the reaction mixture at desired concentrations. Lane 1—Histone only, Lane 2—CBP enzyme added, Lane 3—DMSO added, Lane 4—50 μM TTK21, Lane 5—100 μM TTK21, Lane 6—200 μM TTK21 and Lane 7—275 μM TTK21.
COMPOUND 1 is synthesized using salicylic acid as a substrate as depicted in FIG. 1. […] The concentrations of COMPOUND 1 selected for this particular assay are 50 μM, 100 μM, 200 μM and 275 μM. […] These screening experiments are also repeated with full length FLAG-CBP (FIG. 3).
as §1, with “SDS-PAGE.” for “SDS-PAGE. Comassie staining is performed to ascertain the presence of equal loading in each reaction and is later dehydrated in DMSO for about 1 hour.”

T1 sequence (Q09472 whole entry, species assumed): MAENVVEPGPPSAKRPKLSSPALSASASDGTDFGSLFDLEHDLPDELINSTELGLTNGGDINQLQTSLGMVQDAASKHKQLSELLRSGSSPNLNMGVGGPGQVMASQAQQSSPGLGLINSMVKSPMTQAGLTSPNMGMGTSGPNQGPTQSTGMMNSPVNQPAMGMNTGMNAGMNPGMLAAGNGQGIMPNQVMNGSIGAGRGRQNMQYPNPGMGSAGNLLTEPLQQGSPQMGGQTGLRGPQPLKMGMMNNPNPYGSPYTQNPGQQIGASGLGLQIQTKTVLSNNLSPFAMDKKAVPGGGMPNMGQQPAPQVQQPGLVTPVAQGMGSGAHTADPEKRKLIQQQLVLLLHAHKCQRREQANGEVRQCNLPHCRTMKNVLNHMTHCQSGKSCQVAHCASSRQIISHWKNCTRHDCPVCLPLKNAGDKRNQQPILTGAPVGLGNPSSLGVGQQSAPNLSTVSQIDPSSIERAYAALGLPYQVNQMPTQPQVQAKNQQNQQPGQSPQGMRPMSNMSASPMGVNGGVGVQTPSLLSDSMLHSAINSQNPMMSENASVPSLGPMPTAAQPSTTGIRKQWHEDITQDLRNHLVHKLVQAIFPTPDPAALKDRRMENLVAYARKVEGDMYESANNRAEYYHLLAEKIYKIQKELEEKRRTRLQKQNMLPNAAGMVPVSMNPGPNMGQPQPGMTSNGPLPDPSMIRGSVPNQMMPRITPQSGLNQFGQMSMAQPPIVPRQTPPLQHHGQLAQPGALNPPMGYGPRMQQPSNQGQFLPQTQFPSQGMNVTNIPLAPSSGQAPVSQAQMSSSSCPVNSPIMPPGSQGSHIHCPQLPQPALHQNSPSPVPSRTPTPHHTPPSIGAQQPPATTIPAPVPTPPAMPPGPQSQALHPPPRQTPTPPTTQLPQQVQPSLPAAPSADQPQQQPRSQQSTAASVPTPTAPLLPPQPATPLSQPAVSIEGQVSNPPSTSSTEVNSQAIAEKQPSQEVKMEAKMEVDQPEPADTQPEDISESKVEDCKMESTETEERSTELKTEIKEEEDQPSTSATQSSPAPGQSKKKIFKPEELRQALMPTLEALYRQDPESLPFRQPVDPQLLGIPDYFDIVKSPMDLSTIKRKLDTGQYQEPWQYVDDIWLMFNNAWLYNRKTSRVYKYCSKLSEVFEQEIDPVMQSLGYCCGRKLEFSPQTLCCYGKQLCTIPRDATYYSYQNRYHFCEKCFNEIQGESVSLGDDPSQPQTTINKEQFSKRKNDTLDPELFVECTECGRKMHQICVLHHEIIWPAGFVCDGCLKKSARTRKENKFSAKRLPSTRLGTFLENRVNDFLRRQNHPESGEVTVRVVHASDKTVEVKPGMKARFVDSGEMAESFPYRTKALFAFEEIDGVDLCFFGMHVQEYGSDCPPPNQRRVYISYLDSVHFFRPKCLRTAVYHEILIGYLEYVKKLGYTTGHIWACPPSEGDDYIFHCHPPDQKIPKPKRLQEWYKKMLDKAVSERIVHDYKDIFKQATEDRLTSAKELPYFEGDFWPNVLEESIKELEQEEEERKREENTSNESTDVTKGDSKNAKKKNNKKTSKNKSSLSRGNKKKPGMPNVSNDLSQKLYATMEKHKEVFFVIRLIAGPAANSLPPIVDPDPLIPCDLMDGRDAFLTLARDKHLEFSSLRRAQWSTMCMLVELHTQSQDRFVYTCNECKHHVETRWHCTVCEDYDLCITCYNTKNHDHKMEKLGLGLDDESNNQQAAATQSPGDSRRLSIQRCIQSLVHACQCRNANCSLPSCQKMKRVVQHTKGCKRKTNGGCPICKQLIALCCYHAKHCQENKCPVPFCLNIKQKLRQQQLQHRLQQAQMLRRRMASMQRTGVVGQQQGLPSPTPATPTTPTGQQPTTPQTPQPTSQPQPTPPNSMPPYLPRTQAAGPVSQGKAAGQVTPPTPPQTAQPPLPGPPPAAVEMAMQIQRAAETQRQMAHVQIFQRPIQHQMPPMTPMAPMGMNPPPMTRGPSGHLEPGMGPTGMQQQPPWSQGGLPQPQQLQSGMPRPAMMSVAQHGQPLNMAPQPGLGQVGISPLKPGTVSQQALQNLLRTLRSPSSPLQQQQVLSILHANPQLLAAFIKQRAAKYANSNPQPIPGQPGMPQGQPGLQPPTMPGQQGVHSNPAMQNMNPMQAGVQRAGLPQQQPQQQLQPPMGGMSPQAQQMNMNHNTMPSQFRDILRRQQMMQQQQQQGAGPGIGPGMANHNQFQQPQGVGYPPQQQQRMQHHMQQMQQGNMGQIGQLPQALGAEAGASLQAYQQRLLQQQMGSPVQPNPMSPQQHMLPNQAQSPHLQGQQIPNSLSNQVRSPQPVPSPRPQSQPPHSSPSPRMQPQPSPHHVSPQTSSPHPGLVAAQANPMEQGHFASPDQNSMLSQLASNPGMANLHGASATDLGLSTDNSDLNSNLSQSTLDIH

concentration of maximum activation of p300 [1]: 275 µM
activation of p300, dose dependence ([1]; 50-275 μM): dose dependent manner
HAT activation (radioactivity counts) [3]: one of the most efficient HAT activator
concentration of maximum activation of p300 ([3]; filter binding): 250 to 275 µM
activation of p300, dose dependence ([3]; filter binding, 50-275 μM): Dose dependent activation of p300
concentration from which activation of p300 starts ([3]; filter binding, tested 50, 100, 200, 275 μM): 5004
cell permeability ([5]; listed as TTK21): impermeable to cells
activation of CBP, dose dependence ([6]; 50-275 μM): dose dependent activation of CBP
concentration of maximum activation of CBP ([6]; filter binding and gel fluorography): 275 µM
Compound: CCCOc1ccccc1C(=O)Nc1ccc(Cl)c(C(F)(F)F)c1 [COMPOUND 1, N-(4-Chloro-3-trifluoromethyl-phenyl)-2-n-propoxy-benzamide]
cell permeability [2]: inability of the COMPOUND 1 molecule alone to enter into mammalian cells
HAT activation (radioactivity counts) ([3]; listed as TTK21): significant increase in radioactivity counts compared to other compounds
double cortin expression in dentate gyrus [4]: doesn't show double cortin expression
cell permeability [5]: inability of the COMPOUND 1 molecule itself to enter into mammalian cells
histone H3 acetylation ([5]; 50-275 μM, 24 hrs): no alteration of histone H3 acetylation
